Here are results for 9 compounds from patent US7998965B2, “Glutamate aggrecanase inhibitors” (Wyeth LLC, priority 2005, dated 2011).

One assay has as its target T1, MMP-1 (Homo sapiens, UniProt P03956).
T1 sequence (P03956 100-469): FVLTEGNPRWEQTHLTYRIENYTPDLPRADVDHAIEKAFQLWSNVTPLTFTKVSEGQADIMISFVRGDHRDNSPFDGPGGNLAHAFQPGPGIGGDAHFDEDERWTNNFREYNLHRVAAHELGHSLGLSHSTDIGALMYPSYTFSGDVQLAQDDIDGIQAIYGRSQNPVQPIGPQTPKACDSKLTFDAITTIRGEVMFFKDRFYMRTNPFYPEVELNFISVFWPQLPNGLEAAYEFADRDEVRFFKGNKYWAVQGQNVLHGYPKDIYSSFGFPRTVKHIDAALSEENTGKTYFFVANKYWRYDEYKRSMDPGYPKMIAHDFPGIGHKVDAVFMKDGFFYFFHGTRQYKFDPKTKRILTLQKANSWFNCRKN
The assay is described as follows: MMP-1 of Table 1. Format: biochemical. Particulars: for IC50: unit inferred; for MMP-1: unit not given.

In assay [1] the test system is bovine articular cartilage treated with Interleukin 1 alpha (IL-1α). The experiment in a line: Bovine articular cartilage explant cultures: inhibition of degradation of proteoglycan. Format: cell-based. Conditions: inhibitory effect expressed as percentage, concentration not printed. The source says: This in vitro procedure was used to evaluate the effect and relative potencies of small molecule compounds to inhibit the degradation of proteoglycan in articular cartilage treated with Interleukin 1 alpha (IL-1α). Treatment of articular cartilage with IL 1α induces expression of a cascade of enzymes that initiates cartilage matrix degradation. This assay was utilized to select small molecule compounds that inhibit the enzyme activity and protects cartilage matrix degradation.
Articular cartilage: bovine metacarpal joints were disinfected with 10% Wescodyne followed by 70% ethanol. 6 mm articular cartilage discs were prepared and rinsed once in PBS and medium, respectively. The discs were cultured in a stirring flask with serum-free medium for 5 days for equilibrium with one medium change. Small molecule compounds: stock solutions of test small molecule compounds (usually at 5 mg/ml) were prepared in DMSO. Working solutions were diluted with DMSO and generally ranged from 0.1 μg/ml to 10 ug/ml. The DMSO stocks were stored at […]. Articular cartilage explant culture medium: DMEM, 2 mM glutamax, 100 U/ml of antibiotic and antimycotic, 50 μg/ml ascorbate and 10 mM Hepes (pH-7.0). Proteoglycan content-Dimethyl methylene blue (DMMB) solution: […] DMMB, 10 ml 100% ethanol, 29.5 ml of 1M NaOH, 3.5 ml of 98% formic acid and water to 1 L. Chondroitin sulphate sodium salt: 1.56-200 ug/ml serial dilutions.
For the explant culture, cartilage discs were cultured in serum-free medium for 48 h or more. Discs were weighed and transferred to a 96-well plate, 1 disc per-well. 0.2 ml of medium containing 5 ng/ml of IL-1 and different concentrations of compounds were added to each well, with 3 wells allocated for each treatment. The medium was collected at days 1, 2, & 3 and replaced accordingly.
For the DMMB assay, conditioned medium (CM) samples were diluted with medium. 10 ul of each standard or diluted sample was added in duplicate into a 96-well-plate and 200 μl of DMMB solution was added into each well. Absorbance at 520 nm was measured for each well. Proteoglycan contents in CM were calculated daily.
The proteoglycan contents are expressed as ug per mg of cartilage. The inhibitory effect of the compounds is expressed as percentage. (See, Tortorella, M. D. et al., Science 1999, 284, 1664-1666).

For assay [2], the target named is T2, recombinant human catalytic domain of MMP-14 (Homo sapiens, UniProt P50281).
T2 construct: 177 amino acids corresponding to Tyr89-Gly265 of mature human enzyme; purchased Chemicon International, Inc. CC1041
The experiment in a line: In vitro fluorescence assay of MMP-14 activity. In kind it is biochemical. Conditions: Table 1; unit inferred.

For another assay, the target named is T3, recombinant human MMP-2 (Homo sapiens, UniProt P08253).
T3 sequence (P08253 110-660): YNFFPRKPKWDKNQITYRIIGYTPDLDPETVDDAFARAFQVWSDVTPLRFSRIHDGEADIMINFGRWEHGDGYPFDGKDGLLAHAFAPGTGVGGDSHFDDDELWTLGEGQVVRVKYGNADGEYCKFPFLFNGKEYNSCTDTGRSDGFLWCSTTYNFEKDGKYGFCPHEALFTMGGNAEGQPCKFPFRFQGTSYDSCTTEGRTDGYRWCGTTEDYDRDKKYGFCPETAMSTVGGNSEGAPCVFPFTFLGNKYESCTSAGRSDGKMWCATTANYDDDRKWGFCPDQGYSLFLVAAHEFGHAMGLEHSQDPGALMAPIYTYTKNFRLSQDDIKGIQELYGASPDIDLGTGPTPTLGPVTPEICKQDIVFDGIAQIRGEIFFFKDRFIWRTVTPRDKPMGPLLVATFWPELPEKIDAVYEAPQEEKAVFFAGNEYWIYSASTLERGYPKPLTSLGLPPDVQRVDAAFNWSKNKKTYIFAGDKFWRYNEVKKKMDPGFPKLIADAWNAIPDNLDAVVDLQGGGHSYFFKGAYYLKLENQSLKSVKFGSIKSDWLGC
The assay is described as follows: In vitro fluorescence assay of MMP-2 activity.

Assay [3] deals with T4, recombinant human catalytic domain of MMP-13 (Homo sapiens, UniProt P45452).
T4 construct: catalytic domain of MMP-13 (165 amino acids, residues 104-268, 19 kDa)
The assay is described as follows: In vitro fluorescence assay of MMP-13 activity. Format: biochemical. Particulars: Table 1; unit inferred.

Assay [4] has as its target T5, purified recombinant human Aggrecanase-2 (Ag2t-Phe628-Strep) (Homo sapiens, UniProt Q9UNA0).
T5 construct: the form used is denoted as Ag2t-Phe628-Strep (MW=41,737)
T5 sequence (Q9UNA0 262-628): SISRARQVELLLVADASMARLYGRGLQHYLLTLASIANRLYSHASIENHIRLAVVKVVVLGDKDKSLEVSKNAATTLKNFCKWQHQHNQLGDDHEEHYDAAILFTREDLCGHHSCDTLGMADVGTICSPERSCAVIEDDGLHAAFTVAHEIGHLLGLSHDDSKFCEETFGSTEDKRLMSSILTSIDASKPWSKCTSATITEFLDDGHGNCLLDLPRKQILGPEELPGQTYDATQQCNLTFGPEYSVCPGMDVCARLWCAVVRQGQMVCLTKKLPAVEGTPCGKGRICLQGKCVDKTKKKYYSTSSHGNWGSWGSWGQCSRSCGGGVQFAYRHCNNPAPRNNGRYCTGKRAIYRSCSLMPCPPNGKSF
The assay is described as follows: In vitro fluorescence screen for Aggrecanase-2 inhibitors. In kind it is biochemical. Conditions: Table 1; read-out: Agg 2 IC50.

The target of assay [5] is T6, purified recombinant human Aggrecanase-1 (rAgg1) (Homo sapiens, UniProt O75173).
T6 sequence (O75173 213-837): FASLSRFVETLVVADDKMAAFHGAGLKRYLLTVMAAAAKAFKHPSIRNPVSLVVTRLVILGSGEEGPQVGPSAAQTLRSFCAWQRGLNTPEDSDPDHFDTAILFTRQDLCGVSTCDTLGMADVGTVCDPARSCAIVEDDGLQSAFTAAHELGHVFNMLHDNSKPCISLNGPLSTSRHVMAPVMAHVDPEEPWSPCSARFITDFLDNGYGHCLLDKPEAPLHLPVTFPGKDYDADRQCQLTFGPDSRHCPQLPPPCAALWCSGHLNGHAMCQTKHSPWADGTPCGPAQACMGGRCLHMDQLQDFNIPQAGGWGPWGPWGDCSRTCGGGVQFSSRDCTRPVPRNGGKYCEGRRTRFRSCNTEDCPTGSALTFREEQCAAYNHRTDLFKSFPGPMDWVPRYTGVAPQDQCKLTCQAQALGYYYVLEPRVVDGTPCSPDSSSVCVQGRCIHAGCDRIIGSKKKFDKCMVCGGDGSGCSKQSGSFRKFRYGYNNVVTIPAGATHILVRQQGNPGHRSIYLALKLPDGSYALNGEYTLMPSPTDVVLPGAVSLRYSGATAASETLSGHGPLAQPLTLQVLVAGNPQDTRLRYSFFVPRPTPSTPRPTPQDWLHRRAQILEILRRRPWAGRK
The experiment in a line: In vitro fluorescence screen for Aggrecanase-1 inhibitors. Format: biochemical. Conditions: Table 1; for IC50: read-out: Agg1 IC50; for Ki: enzyme not given, column follows Agg1 IC50, read-out: Ki.

Setting [6] is: Table 1, first of two columns headed bovine.
The mark [7] stands for this setting: Table 1, second of two columns headed bovine.

Each structure is given as a SMILES string. Where only a bound is given, the exact number is not on record here.

For `O=C(O)CC[C@H](NC(=O)c1ccc(-c2ccccc2)cc1)C(=O)NCc1ccc2c(c1)OCO2` [Example 7, N^1-(1,3-benzodioxol-5-ylmethyl)-N^2-(1,1′-biphenyl-4-ylcarbonyl)-L-α-glutamine], the IC50 is greater than 100 µM against MMP-1; roughly 13 µM in assay [2]; 3 µM on recombinant human MMP-2; roughly 13 µM in assay [3]; 1.8 µM in assay [4]; 0.15 µM in assay [5]. Further, the bovine in assay [1] (setting [6]) turned out to be 61%; in assay [1] (setting [7]), 28%.

As for `O=C(O)CC[C@H](NC(=O)c1ccc(-c2ccccc2)cc1)C(=O)NC1CCCCC1` [Example 8A, N^2-(1,1′-biphenyl-4-ylcarbonyl)-N^1-cyclohexyl-L-α-glutamine], the IC50 on MMP-1 is greater than 100 µM; in assay [2], roughly 25 µM; at recombinant human MMP-2, 4.4 µM; in assay [3], roughly 40 µM; in assay [4], 0.9 µM; in assay [5], 0.15 µM. The bovine in assay [1] (setting [6]) turned out to be 75%; in assay [1] (setting [7]), 29%.

Regarding `O=C(O)CC[C@H](NC(=O)c1ccc(-c2ccccc2)cc1)C(=O)NC1CC1` [Example 8B, N^2-(1,1′-biphenyl-4-ylcarbonyl)-N^1-cyclopropyl-L-α-glutamine], the IC50 is greater than 100 µM at MMP-1; roughly 25 µM in assay [2]; 5.6 µM at recombinant human MMP-2; roughly 50 µM in assay [3]; 1.9 µM in assay [4]; 0.46 µM in assay [5]. Besides, the bovine was determined as 54% in assay [1] (setting [6]) and 22% in assay [1] (setting [7]).

In the case of `CCCCNC(=O)[C@H](CCC(=O)O)NC(=O)c1ccc(-c2ccccc2)cc1` [Example 8C, N^2-(1,1′-biphenyl-4-ylcarbonyl)-N^1-butyl-L-α-glutamine], the IC50 is greater than 100 µM against MMP-1; roughly 25 µM in assay [2]; 6 µM at recombinant human MMP-2; roughly 50 µM in assay [3]; 1.2 µM in assay [4]; 0.11 µM in assay [5]. Further, the bovine in assay [1] (setting [6]) was 68%; in assay [1] (setting [7]) it was 34%.

With `COc1cc(CNC(=O)[C@H](CCC(=O)O)NC(=O)c2ccc(-c3ccccc3)cc2)cc(OC)c1` [Example 8CC, N^2-(1,1′-biphenyl-4-ylcarbonyl)-N^1-(3,5-dimethoxybenzyl)-L-α-glutamine], the MMP-1 entry at MMP-1 is “no inh”. Moreover, the bovine was determined as 94% in assay [1] (setting [6]) and 71% in assay [1] (setting [7]). Also, the IC50 was roughly 25 µM in assay [2]; 5.65 µM on recombinant human MMP-2; roughly 22 µM in assay [3]; 0.121 µM in assay [4]; 0.022 µM in assay [5]. For the same compound, in assay [5], the Ki came out at 0.019 µM.

Consider `O=C(O)CC[C@H](NC(=O)c1ccc(-c2ccccc2)cc1)C(=O)NCc1ccc(F)cc1` [Example 8D, N^2-(1,1′-biphenyl-4-ylcarbonyl)-N^1-(4-fluorobenzyl)-L-α-glutamine], for which the IC50 is greater than 100 µM against MMP-1; 17 µM in assay [2]; 4.4 µM at recombinant human MMP-2; roughly 25 µM in assay [3]; 0.22 µM in assay [5]. The bovine is 67% in assay [1] (setting [6]) and 27% in assay [1] (setting [7]).

On to `Cc1ccc(CNC(=O)[C@H](CCC(=O)O)NC(=O)c2ccc(-c3ccccc3)cc2)cc1C` [Example 8DD, N^2-(1,1′-biphenyl-4-ylcarbonyl)-N^1-(3,4-dimethylbenzyl)-L-α-glutamine], for which the MMP-1 result on MMP-1 is recorded as “no inh”. For the same compound, the bovine in assay [1] (setting [6]) was 89%; in assay [1] (setting [7]) it was 50%. For the same compound, the IC50 in assay [2] is 16.2 µM; on recombinant human MMP-2, 4.58 µM; in assay [3], roughly 22 µM; in assay [4], 0.93 µM; in assay [5], 0.094 µM.

Take `O=C(O)CC[C@H](NC(=O)c1ccc(-c2ccccc2)cc1)C(=O)NC1CCCCCCC1` [Example 8E, N^2-(1,1′-biphenyl-4-ylcarbonyl)-N^1-cyclooctyl-L-α-glutamine]: the IC50 at MMP-1 was greater than 200 µM; in assay [2], roughly 25 µM; on recombinant human MMP-2, 3.7 µM; in assay [3], roughly 25 µM; in assay [4], 0.746 µM; in assay [5] it was 0.09 µM. Also, the figures for the bovine in assay [1] (setting [6]) and in assay [1] (setting [7]) were 79% and 34%, respectively.

For the compound `COc1ccc(CNC(=O)[C@H](CCC(=O)O)NC(=O)c2ccc(-c3ccccc3)cc2)cc1OC` [Example 8F, N^2-(1,1′-biphenyl-4-ylcarbonyl)-N^1-(3,4-dimethoxybenzyl)-L-α-glutamine], the IC50 against MMP-1 is greater than 200 µM; in assay [2] it was roughly 25 µM; on recombinant human MMP-2, 5.63 µM; in assay [3], roughly 22 µM; in assay [4], 0.304 µM; in assay [5], 0.03 µM. Besides, the bovine in assay [1] (setting [6]) is on record as 81%; in assay [1] (setting [7]), 56%. Further, the Ki in assay [5] is 0.012 µM.
